Source: EPA's ToxValDB 9.5 (doi:10.2903/j.efsa.2008.185r)
Where “and” joins values, the source holds several entries; their conditions need not be identical. Equal entries are not always repeated.

Columns and labels:
[1] = system: Apis mellifera; conditions: acute; duration: 48 hours; oral; unspecified; mortality
[2] = system: Coturnix coturnix; conditions: acute, oral, mortality
[3] = system: Tagia sp.; conditions: acute; duration: 14 days; mortality
[4] = system: Colinus virginianus; conditions: mortality
[5] = system: Daphnia magna; conditions: chronic/long-term; duration: 21 days; reproduction
[6] = system: Mus musculus; conditions: acute, oral, mortality
[7] = system: Rattus norvegicus; conditions: for LD50: acute, oral
[8] = system: Oncorhynchus mykiss
[9] = system: Anas platyrhynchos; conditions: short-term; oral; feed; mortality
[10] = system: Canidae; conditions: oral, Dog Other, clinical chemistry
[11] = system: Aphidius rhopalosiphi; test: LR50; higher = less toxic; conditions: not reported; mortality
[12] = system: Typhlodromus pyri; test: LR50; higher = less toxic; conditions: not reported; mortality

Work on `Cc1nnc(-c2ccccc2)c(=O)n1N` [Metamitron] yielded an LD50 [1] of over 97.2 µg/piece, an LD50 ([2]; F) of 1300 mg/kg-day and an LD50 ([2]; M) of 1360 mg/kg-day. The LC50 [3] was 914 mg/kg, the LD50 ([4]; acute, oral, diet) was over 904 mg/kg-day and the NOAEL ([4]; reproduction developmental) was 81.5 mg/kg-day. For the same molecule, the NOEC [5] was 10 mg/L, the LD50 ([6]; M) was 691 mg/kg-day and the LD50 [6] was 644 mg/kg-day. For the same molecule, the LD50 ([7]; F, mortality) was 1480 mg/kg-day, the LD50 ([7]; M, mortality) was 1180 mg/kg-day and the LD50 ([7]; mortality) was < 2000 mg/kg-day and 4320 mg/kg-day. It also gave an NOAEL ([7]; chronic, F, mortality) of 53.8 mg/kg-day, an NOAEL ([7]; chronic, M, mortality) of 36.4 mg/kg-day and an NOAEL ([7]; reproduction developmental, body weight) of 10 mg/kg-day. For the same molecule, the LC50 ([8]; acute, duration: 96 hours, mortality) was over 190 µg/mL, the NOEC ([8]; chronic/long-term, duration: 21 days, growth) was 7 mg/L and the LD50 [9] was over 1590 mg/kg-day. For the same molecule, the NOAEL ([10]; chronic, duration: 2 years, diet) was 3 mg/kg-day, the NOAEL ([10]; subchronic, duration: 90 days) was 3.6 mg/kg-day and the LR50 [11] was 14400 g/ha. The LR50 [12] was 14400 g/ha.
